Measurements reported in US8912200B2, “Alkynyl substituted pyrimidinyl-pyrroles active as kinases inhibitors” (Nerviano Medical Sciences S.R.L., priority 2011, dated 2014).

What was measured:
Lyn full length = molecular target: T1, Lyn full length (Homo sapiens, UniProt P07948); experiment: Biochemical assay for inhibitors of Lyn (Src family) kinase activity; settings: Lyn full length 1 nM, 25 μM ATP
T1 construct: The assay has been performed using Lyn full length
From the text: Biochemical Assay for Inhibitors of Lck and Lyn (Src Family) Kinases Activity
Specific Lck and Lyn substrates are trans-phosphorylated by Lck and Lyn kinases in the presence of ATP traced with 33P-γ-ATP. At the end of the phosphorylation reaction, the unreacted ATP, cold and radioactive, is captured by an excess of dowex ion exchange resin that eventually settles by gravity to the bottom of the reaction plate. The supernatant is subsequently withdrawn and transferred into a counting plate that is then evaluated by β-counting.
Lyn Specific Assay Conditions
The assay has been performed using Lyn full length (accession number P07948 of UniProtKB/Swiss-Prot database).
Kinase buffer was composed of 50 mM HEPES pH 7.5 containing 3 mM MgCl2, 1 mM DTT, 3 μM Na3VO4, and 0.2 mg/mL BSA.
The Lyn kinase assay was run with a final enzyme concentration of 1 nM, in the presence of 25 μM ATP, 1.5 nM 33P-γ-ATP and 250 μM of substrate ABI 1 (Aminoacid sequence: EAIYAAPFAKKK—SEQ ID NO: 3). The peptidic substrate was purchased from American Peptide Company (Sunnyvale, Calif.).
For IC50 determination, test compounds are received as a 1 mM solution in 100% DMSO, distributed into 96 well plates: compounds are then plated into the first column of a microtiter plate (A1 to G1), 100 μL/well.
An automated station for serial dilutions (Biomek FX, Beckman) is used for producing 1:3 dilutions in 100% DMSO, from line A1 to A10, and for all the compounds in the column. Moreover, 4-5 copies of daughter plates are prepared by reformatting 5 μL of this first set of 100% DMSO dilution plates into 384 deep well-plates: one of these plates with the serial dilutions of test compounds will be thawed the day of the experiments, reconstituted at a 3× concentration with water and used in the IC50 determination assays. In a standard experiment, the highest concentration (3×) of all compounds is 30 μM, while the lowest one is 1.5 nM. Each 384 well-plate will contain at least one curve of the standard inhibitor staurosporine and reference wells (total enzyme activity vs. no enzymatic activity) for the Z′ and signal to background evaluation.
384-well plates, V bottom (test plates) are prepared with 5 μL of the compound dilution (3×) and then placed onto a PlateTrak 12 robotized station (Perkin Elmer; the robot has one 384-tip pipetting head for starting the assay plus one 96-tip head for dispensing the resin) together with one reservoir for the Enzyme mix (3×) and one for the ATP mix (3×). At the start of the run, the robot aspirates 5 μL of ATP mix, makes an air gap inside the tips (3 μl) and aspirates 5 μL of JAK2 mix. The following dispensation into the plates plus 3 cycles of mixing, done by the robot itself, starts the kinase reaction. At this point, the correct concentrations are restored for all the reagents. The robot incubates the plates for 60 minutes at room temperature, and then stops the reaction by pipetting 60 μL of dowex resin suspension into the reaction mix. In order to avoid tip clogging, wide bore tips are used to dispense the resin suspension. Three cycles of mixing are done immediately after the addition of the resin. Another mixing cycle is performed after all the plates are stopped, this time using normal tips: the plates are then allowed to rest for about one hour in order to allow resin sedimentation. At this point, 27 μL of the supernatant are transferred into 384-Optiplates (Perkin-Elmer), with 50 μL of Microscint 40 (Perkin-Elmer); after 5 min of orbital shaking the plates are read on a Perkin-Elmer Top Count radioactivity counter.
Data are analyzed by an internally customized version of the SW package “Assay Explorer” that provides sigmoidal fitting of the ten-dilutions curves for IC50 determination in the secondary assays/hit confirmation routines.

[1] = tested on: JAK2 dependent human megakaryoblastic leukemia cell line SET-2; experiment: Cell proliferation assay (CellTiter-Glo, 72 hours); format: cell-based; settings: Homo sapiens, SET-2 cells
How it was run: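 About 5×10^3 SET-2 cells per well, in RPMI-1640 with 10% FBS, were exposed to inhibitor dilutions for 72 hours at 37 °C, 5% CO2. Viability read by CellTiter-Glo luminescence. IC50 from sigmoidal fitting of 8-point dilution curves.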

JAK2 kinase domain = molecular target: T2, JAK2 kinase domain (Homo sapiens, UniProt O60674); experiment: Biochemical assay for inhibitors of JAK kinase activity (JAK2, 33P-γ-ATP/dowex resin); settings: JAK2 kinase domain 1 nM, 60 μM ATP
T2 construct: commercially available JAK2 kinase domain; purchased Invitrogen, Eugene, Oreg
T2 sequence (O60674 849-1124 limits assumed): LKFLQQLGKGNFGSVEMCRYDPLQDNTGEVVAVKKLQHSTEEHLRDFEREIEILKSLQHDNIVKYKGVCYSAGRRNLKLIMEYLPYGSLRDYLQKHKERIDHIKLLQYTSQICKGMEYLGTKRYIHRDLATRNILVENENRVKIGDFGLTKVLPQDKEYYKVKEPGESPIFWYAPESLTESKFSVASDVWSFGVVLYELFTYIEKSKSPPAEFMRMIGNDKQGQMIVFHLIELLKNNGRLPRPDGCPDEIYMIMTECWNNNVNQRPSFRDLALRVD
How it was run: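 Human JAK2 (1 nM) phosphorylated peptide BioDBn*306 (64 μM) with 60 μM ATP plus 3 nM 33P-γ-ATP in HEPES pH 7.5/MgCl2/DTT buffer, 60 min at room temperature. Unreacted ATP captured by Dowex resin; supernatant β-counted. IC50 from sigmoidal fit of ten-point 1:3 dilution curves.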

T1 sequence (P07948 whole entry): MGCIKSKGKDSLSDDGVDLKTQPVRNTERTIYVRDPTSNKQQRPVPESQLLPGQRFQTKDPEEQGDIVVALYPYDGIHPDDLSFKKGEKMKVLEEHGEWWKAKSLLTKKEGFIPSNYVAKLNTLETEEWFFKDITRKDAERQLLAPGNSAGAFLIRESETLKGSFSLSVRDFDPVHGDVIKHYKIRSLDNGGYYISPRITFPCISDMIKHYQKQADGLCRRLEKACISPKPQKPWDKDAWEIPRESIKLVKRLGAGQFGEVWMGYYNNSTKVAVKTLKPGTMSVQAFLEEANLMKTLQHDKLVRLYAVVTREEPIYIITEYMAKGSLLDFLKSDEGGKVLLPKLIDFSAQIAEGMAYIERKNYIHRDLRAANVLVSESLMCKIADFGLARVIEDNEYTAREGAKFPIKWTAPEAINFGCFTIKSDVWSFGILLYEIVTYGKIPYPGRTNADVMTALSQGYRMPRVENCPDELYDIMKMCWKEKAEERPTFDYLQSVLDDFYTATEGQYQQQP

Row | Structure (SMILES) | IC50 (Lyn full length) [nM] | IC50 [1] [nM] | IC50 (JAK2 kinase domain) [nM]
1 | Cc1ccc(Cl)cc1-c1[nH]c(-c2ccnc(N)n2)c(C#Cc2ccccc2)c1C(N)=O [compound 69, 5-(2-Amino-pyrimidin-4-yl)-2-(5-chloro-2-methyl-phenyl)-4-phenylethynyl-1H-pyrrole-3-carboxamide] | 20 | 1450 | 8
2 | Cc1ccc(Cl)cc1-c1[nH]c(-c2ccnc(N)n2)c(C#Cc2cccc(N)c2)c1C(N)=O [compound 72, 4-[(3-Aminophenyl)ethynyl]-5-(2-aminopyrimidin-4-yl)-2-(5-chloro-2-methylphenyl)-1H-pyrrole-3-carboxamide] | 10 | 420 | 2
3 | Cc1ccc(Cl)cc1-c1[nH]c(-c2ccnc(N)n2)c(C#Cc2cccc(NCCN)c2)c1C(N)=O [compound 82, 4-({3-[(2-Aminoethyl)amino]phenyl}ethynyl)-5-(2-aminopyrimidin-4-yl)-2-(5-chloro-2-methylphenyl)-1H-pyrrole-3-carboxamide] | 11 | 290 | 7
4 | Cc1ccc(Cl)cc1-c1[nH]c(-c2ccnc(N)n2)c(C#Cc2ccc(N3CCN(C)CC3)cc2)c1C(N)=O [compound 83, 5-(2-Aminopyrimidin-4-yl)-2-(5-chloro-2-methylphenyl)-4-{[4-(4-methylpiperazin-1-yl)phenyl]ethynyl}-1H-pyrrole-3-carboxamide] | 9 | 510 | 8
5 | Cc1ccc(Cl)cc1-c1[nH]c(-c2ccnc(N)n2)c(C#Cc2ccccc2NCCN(C)C)c1C(N)=O [compound 87, 5-(2-Aminopyrimidin-4-yl)-2-(5-chloro-2-methylphenyl)-4-[(2-{[2-(dimethylamino)ethyl]amino}phenyl)ethynyl]-1H-pyrrole-3-carboxamide] | 24 | 290 | 13

Compounds with a lower IC50 (Lyn full length), results first:

Row | IC50 (Lyn full length) [nM] | IC50 [1] [nM] | IC50 (JAK2 kinase domain) [nM] | Structure (SMILES)
6 | 1 | 190 | 1 | Cc1ccc(Cl)cc1-c1[nH]c(-c2nc(N)ncc2C#Cc2ccc(CN3CCCCC3)cc2)cc1C(N)=O [compound 67, 5-(2-Amino-5-{[4-(piperidin-1-ylmethyl)phenyl]ethynyl}pyrimidin-4-yl)-2-(5-chloro-2-methylphenyl)-1H-pyrrole-3-carboxamide]
7 | 8 | 500 | 3 | Cc1ccc(Cl)cc1-c1[nH]c(-c2ccnc(N)n2)c(C#Cc2ccc(N)cc2)c1C(N)=O [compound 76, 4-[(4-Aminophenyl)ethynyl]-5-(2-amino-pyrimidin-4-yl)-2-(5-chloro-2-methyl-phenyl)-1H-pyrrole-3-carboxamide]
8 | 3 | 540 | 6 | Cc1ccc(Cl)cc1-c1[nH]c(-c2ccnc(N)n2)c(C#Cc2cccc(CN3CCN(C)CC3)c2)c1C(N)=O [compound 81, 5-(2-Aminopyrimidin-4-yl)-2-(5-chloro-2-methylphenyl)-4-({3-[(4-methylpiperazin-1-yl)methyl]phenyl}ethynyl)-1H-pyrrole-3-carboxamide]
9 | 1 | 210 | 1 | COc1ccc(N2CCN(C)CC2)cc1C#Cc1c(-c2ccnc(N)n2)[nH]c(-c2cc(Cl)ccc2C)c1C(N)=O [compound 86, 5-(2-Aminopyrimidin-4-yl)-2-(5-chloro-2-methylphenyl)-4-{[2-methoxy-5-(4-methylpiperazin-1-yl)phenyl]ethynyl}-1H-pyrrole-3-carboxamide]
10 | 4 | 260 | 6 | COc1cc(N2CCN(C)CC2)ccc1C#Cc1c(-c2ccnc(N)n2)[nH]c(-c2cc(Cl)ccc2C)c1C(N)=O [compound 89, 5-(2-Aminopyrimidin-4-yl)-2-(5-chloro-2-methylphenyl)-4-{[2-methoxy-4-(4-methylpiperazin-1-yl)phenyl]ethynyl}-1H-pyrrole-3-carboxamide]
